Drawing on patent US20240327412A1, “FACTOR XIIA INHIBITORS” (KALVISTA PHARMACEUTICALS LIMITED, priority 2021, published 2024), this text covers IC50, half-life and bioavailability for one compound.

The structures appear in SMILES notation.

The target of one data set is T1, Human Factor XIIa (Homo sapiens, UniProt P00748).
T1 construct: Proteolytic cleavage of FXII to heavy and light chains of FXIIa dramatically increases catalytic activity; purchased Enzyme Research Laboratories
T1 sequence (P00748 373-615 limits assumed): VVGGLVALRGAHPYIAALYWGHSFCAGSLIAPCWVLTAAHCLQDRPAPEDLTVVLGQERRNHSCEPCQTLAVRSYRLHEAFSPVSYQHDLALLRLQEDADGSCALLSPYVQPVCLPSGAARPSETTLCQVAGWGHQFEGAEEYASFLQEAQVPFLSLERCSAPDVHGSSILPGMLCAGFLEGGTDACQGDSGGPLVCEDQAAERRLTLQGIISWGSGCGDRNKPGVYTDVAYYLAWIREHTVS
T1 sequence (P00748 20-372 partner limits assumed): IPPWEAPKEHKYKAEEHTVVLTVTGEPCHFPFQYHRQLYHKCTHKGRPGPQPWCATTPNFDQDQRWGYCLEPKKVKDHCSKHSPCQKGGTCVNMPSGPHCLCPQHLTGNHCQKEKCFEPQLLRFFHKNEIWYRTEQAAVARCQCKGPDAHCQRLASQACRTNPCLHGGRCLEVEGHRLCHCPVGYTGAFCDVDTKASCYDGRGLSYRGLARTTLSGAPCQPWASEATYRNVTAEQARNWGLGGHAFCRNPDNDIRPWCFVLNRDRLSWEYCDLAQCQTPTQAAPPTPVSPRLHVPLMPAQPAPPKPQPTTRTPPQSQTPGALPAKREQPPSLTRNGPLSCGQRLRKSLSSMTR
As to the kind of experiment: Determination of FXIIa inhibition (fluorogenic substrate H-DPro-Phe-Arg-AFC, IC50 assay). It is filed as biochemical. The following applies: substrate at Km concentration, 25° C.; category scale; read-out: Human FXII IC50 (nm). Summed up: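 Human FXIIa incubated at 25° C. with fluorogenic H-DPro-Phe-Arg-AFC at its Km concentration plus varying compound levels. Linear fluorescence increase over 5 min taken as % activity; IC50 is concentration halving uninhibited activity.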

Another data set has as its target T2, Plasma Kallikrein (Homo sapiens, UniProt P03952).
T2 construct: FXIIa converts plasma prekallikrein (PK) to plasma kallikrein (PKa)
Briefly: Related protease inhibition: Plasma Kallikrein (fluorogenic substrate at Km). It is filed as biochemical. The note with it: class symbols per Table 18, read-out: IC50 (human PKal). In a few lines: (§1)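 Protease activity against a fluorogenic substrate (Km level; 100 μM fixed for FXIa) is measured at 25° C across various inhibitor concentrations. Liberated fluorescence is tracked for 5 min, and slopes are expressed relative to uninhibited enzyme to give the IC50.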

The target in a further data set is KLK1 (Homo sapiens, UniProt P06870). Briefly: Related protease inhibition: KLK1 (fluorogenic substrate at Km). Format: biochemical. The note with it: class symbols per Table 18. Summed up:
(§2)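 Enzymatic activity was followed as release of fluorescence from a fluorogenic substrate over 5 min at 25° C, with test compound at various concentrations. The linear rate per minute was converted to % activity, and IC50 was taken as the concentration giving 50% inhibition of uninhibited enzyme activity.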

Another data set has as its target FXa (Homo sapiens, UniProt P00742). Briefly: Related protease inhibition: FXa (fluorogenic substrate at Km). The note with it: class symbols per Table 18. It is filed as biochemical. Summed up: as §2
In the next data set the target is Plasmin (Homo sapiens, UniProt P00747). As to the kind of experiment: Related protease inhibition: Plasmin (fluorogenic substrate at Km). Format: biochemical. The following applies: class symbols per Table 18. In a few lines:
as §2

A further data set addresses Thrombin (Homo sapiens, UniProt P00734). Briefly: Related protease inhibition: Thrombin (fluorogenic substrate at Km). It is filed as biochemical. The note with it: class symbols per Table 18. In a few lines:
as §1

For another data set, the target named is Trypsin (Homo sapiens, UniProt P07477). As to the kind of experiment: Related protease inhibition: Trypsin (fluorogenic substrate at Km). It is filed as biochemical. The note with it: class symbols per Table 18. Summed up: as §1
In a further data set the target is FXIa (Homo sapiens, UniProt P03951). As to the kind of experiment: Related protease inhibition: FXIa (fixed substrate concentration of 100 μM). It is filed as biochemical. The following applies: class symbols per Table 18. As to the method: In vitro inhibition of related proteases was determined using an IC50 assay based on standard literature methods (see e.g. Shori et al., Biochem. Pharmacol., 1992, 43, 1209; Bouckaert et al., European Journal of Medicinal Chemistry 110 (2016) 181). Human serine protease enzyme Plasma Kallikrein, KLK1, FXa, Plasmin, Thrombin and Trypsin were assayed for enzymatic activity using an appropriate fluorogenic substrate at Km concentration, FXIa at fixed substrate concentration of 100 μM and various concentrations of the test compound. Protease activity was measured by monitoring the accumulation of liberated fluorescence from the substrate over 5 min at 25° C. The linear rate of fluorescence increase per minute was expressed as percentage (%) activity. IC50 values were calculated as the concentration of inhibitor giving 50% inhibition of the uninhibited enzyme activity (100%).
Chain of FXIa (P03951 388-625 limits assumed): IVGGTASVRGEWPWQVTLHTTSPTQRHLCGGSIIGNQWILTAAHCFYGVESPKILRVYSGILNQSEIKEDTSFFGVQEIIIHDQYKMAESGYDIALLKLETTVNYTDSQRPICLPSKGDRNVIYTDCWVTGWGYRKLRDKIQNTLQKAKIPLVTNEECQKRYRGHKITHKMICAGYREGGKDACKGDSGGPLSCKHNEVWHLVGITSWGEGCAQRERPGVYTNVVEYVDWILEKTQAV
Chain of FXIa (P03951 19-387 partner limits assumed): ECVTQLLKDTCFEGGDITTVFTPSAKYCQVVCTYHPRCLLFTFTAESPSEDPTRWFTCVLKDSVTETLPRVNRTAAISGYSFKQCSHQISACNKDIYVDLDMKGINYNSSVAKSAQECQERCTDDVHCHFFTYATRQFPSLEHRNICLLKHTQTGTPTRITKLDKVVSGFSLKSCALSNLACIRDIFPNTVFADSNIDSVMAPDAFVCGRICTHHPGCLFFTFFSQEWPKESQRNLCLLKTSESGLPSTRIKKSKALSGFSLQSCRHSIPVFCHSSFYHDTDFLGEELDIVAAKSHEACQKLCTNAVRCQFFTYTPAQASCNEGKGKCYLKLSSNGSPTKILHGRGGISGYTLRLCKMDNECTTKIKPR

The nature of data set [1]: Pharmacokinetics after single intravenous and single oral dose in rats. Format: in vivo. The following applies: rat, plasma, male Sprague-Dawley rats, single iv (nominal 1 mg/kg) and single po (nominal 5 mg/kg) dose. As to the method:
Pharmacokinetic studies of the compounds in Table 19 were performed to assess the pharmacokinetics following a single intravenous dose and a single oral dose in male Sprague-Dawley rats. Two rats were given a single intravenous dose of 1 mL/kg of a nominal 1 mg/ml (1 mg/kg) composition of test compound in 10% DMSO/10% Cremophor EL/80% SWFI vehicle. Two rats were given a single oral dose of 5 ml/kg of a nominal 1 mg/mL (5 mg/kg) composition of test compound in 10% DMSO/10% Cremophor EL/80% SWFI vehicle.
Following intravenous dosing, blood samples were collected over a period of 12 h. Sample times were 2, 5, 15 and 30 min then 1, 2, 4, 6, and 12 h. Following oral dosing, blood samples were collected over a period of 24 h. Sample times were 5, 15 and 30 min then 1, 2, 4, 6, 8, 12 and 24 h.
Following collection, blood samples were centrifuged and the plasma fraction analysed for concentration of test compound by LCMS. Oral bioavailability and half-life calculations from these studies were obtained using Phoenix WinNonlin (v8.0) and are shown below: […]

Chain of FXa (P00742 235-488 limits assumed): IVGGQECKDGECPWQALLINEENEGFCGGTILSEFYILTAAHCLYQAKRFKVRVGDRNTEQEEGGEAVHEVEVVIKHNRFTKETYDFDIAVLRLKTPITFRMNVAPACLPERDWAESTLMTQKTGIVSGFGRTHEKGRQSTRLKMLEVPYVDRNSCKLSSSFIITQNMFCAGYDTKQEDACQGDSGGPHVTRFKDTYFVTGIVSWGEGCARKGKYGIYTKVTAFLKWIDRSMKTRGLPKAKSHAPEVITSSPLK
Chain of FXa (P00742 41-179 partner limits assumed): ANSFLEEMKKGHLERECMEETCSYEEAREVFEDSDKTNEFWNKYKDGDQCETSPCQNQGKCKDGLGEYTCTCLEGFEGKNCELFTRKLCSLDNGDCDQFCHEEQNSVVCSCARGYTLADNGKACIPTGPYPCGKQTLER
T2 sequence (P03952 391-638 limits assumed): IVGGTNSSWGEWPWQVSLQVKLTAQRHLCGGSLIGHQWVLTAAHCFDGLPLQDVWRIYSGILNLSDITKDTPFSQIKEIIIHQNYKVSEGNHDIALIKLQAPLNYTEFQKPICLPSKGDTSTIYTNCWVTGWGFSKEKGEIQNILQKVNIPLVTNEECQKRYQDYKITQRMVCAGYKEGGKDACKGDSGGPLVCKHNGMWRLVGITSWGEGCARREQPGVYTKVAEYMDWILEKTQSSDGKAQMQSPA
T2 sequence (P03952 20-390 partner limits assumed): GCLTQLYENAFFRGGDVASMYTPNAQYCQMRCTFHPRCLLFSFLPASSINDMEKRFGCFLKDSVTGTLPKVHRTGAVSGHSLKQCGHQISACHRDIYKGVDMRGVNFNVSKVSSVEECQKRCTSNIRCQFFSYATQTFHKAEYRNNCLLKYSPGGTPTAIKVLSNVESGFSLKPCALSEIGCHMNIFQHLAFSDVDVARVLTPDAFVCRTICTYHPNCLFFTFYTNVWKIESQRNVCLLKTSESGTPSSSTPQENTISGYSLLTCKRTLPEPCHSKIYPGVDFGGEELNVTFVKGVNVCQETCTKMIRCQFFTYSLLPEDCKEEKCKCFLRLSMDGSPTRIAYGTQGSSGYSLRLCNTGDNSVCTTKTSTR
Chain of KLK1 (P06870 25-262): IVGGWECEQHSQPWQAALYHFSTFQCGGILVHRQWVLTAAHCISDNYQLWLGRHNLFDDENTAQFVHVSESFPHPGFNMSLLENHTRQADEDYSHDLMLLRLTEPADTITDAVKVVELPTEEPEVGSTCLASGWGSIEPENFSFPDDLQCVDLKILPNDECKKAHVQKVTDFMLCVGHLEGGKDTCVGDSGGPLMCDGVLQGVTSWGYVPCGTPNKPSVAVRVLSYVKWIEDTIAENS
Chain of Plasmin (P00747 581-810 limits assumed): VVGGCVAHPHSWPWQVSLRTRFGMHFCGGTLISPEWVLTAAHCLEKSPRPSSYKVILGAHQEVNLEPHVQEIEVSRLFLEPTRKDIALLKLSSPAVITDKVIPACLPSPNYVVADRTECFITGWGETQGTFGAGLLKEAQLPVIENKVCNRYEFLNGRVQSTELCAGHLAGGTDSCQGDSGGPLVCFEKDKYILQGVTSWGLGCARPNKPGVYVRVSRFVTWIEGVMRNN
Chain of Plasmin (P00747 97-580 partner limits assumed): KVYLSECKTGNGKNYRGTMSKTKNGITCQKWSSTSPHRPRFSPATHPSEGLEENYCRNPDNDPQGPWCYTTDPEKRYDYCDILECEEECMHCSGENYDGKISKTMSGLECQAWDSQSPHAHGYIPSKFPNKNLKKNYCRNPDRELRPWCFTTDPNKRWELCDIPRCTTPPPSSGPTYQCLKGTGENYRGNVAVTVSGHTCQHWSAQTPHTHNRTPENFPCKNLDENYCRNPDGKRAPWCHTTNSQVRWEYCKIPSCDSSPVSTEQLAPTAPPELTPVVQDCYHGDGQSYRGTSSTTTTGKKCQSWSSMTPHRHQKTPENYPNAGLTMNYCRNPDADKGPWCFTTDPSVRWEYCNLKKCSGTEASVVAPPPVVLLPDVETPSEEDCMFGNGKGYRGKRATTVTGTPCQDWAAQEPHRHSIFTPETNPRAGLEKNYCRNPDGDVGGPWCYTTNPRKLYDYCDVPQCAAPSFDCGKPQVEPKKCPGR

On to `Nc1nccc2c(NCC34CC(COc5ccn6ccnc6c5)(C3)C4)cccc12` [Example 1001, N5-((3-((Imidazo[1,2-a]pyridin-7-yloxy)methyl)bicyclo[1.1.1]pentan-1-yl)methyl)isoquinoline-1,5-diamine], for which the IC50 (as a rule, the concentration at which inhibition is half-maximal) on Human Factor XIIa is 0.1 to 0.3 µM; on Plasma Kallikrein, more than 40 µM; on KLK1, 3 to 10 µM; against FXa it was 10 to 40 µM; at Plasmin it was more than 40 µM; on Thrombin it was 10 to 40 µM. The IC50 against Trypsin and against FXIa was more than 40 µM throughout. Further, the half-life – broadly, the time in which the quantity being followed falls by half – in data set [1] (half-life, Phoenix WinNonlin) was 7.83 h. The bioavailability (commonly the share of a dose that reaches the circulation, judged against a reference dose that is usually intravenous) in data set [1] (oral bioavailability, 10% DMSO/10% Cremophor EL/80% SWFI) was 30.4%.
